From the METLIN SMRT retention time set (Domingo-Almenara et al. 2019)

Test: gradient 5% acetonitrile 3 min, to 50% in 2 min, to 85% in 15 min, held 3 min, 100 µL/min
Settings: column: Zorbax Extend-C18 2.1 x 50 mm; eluents: water / acetonitrile, 0.1% formic acid
Outline: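 Retention times of pure standards were taken from adduct peaks that were selected by computer and manually inspected. Over 3 months, mixtures of ~100 molecules were run by HPLC–quadrupole time-of-flight mass spectrometry in positive and negative ionization mode. The Zorbax Extend-C18 column (2.1 × 50 mm, 1.8 μm) ran at 100 μL/min in water and acetonitrile, each containing 0.1% formic acid, with 40 μL dead volume and 900 μL dwell volume.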

| SMILES | RP-LC retention time |
| --- | --- |
| COc1ccc(-n2cc(C(=O)N3CCC(C(N)=O)CC3)nn2)cc1 | 612 s |
| COc1ccc(Nc2c(-c3ccc(N4CCOCC4)cc3)nc3cnccn23)cc1OC | 674 s |
| CCOC(=O)c1nc(N2CCOCC2)c2c(-c3ccccc3Cl)noc2n1 | 934 s |
| Cc1cc2c(=O)n(CC(=O)Nc3cccc(Br)c3)ccc2s1 | 850 s |
| CCCNc1cc(N2CCCC(CCC(=O)Nc3ccc(OCC)cc3)C2)ncn1 (stereo unspecified) | 728 s |
| C/C=C(\CCC1NCCc2c1[nH]c1ccccc21)[Si](C)(C)C (stereo unspecified) | 815 s |
| O=c1c2nc(-c3ccc4c(c3)OCO4)cn2ccn1-c1ccc(F)cc1 | 772 s |
| Cc1ccc(NC(=O)N2CC(c3nc(CCOCC4CCCC4)no3)C2)cc1C | 1060 s |
| Cc1ccc(S(=O)(=O)N2CCC(C(=O)NCc3csc(-c4ccccc4)n3)CC2)cc1C | 989 s |
| CC(CCNC(=O)c1cc(S(=O)(=O)N2CCCCC2)ccc1Cl)N1CCCC1 (stereo unspecified) | 643 s |
| COc1ncccc1CNC(=O)Cc1cccnc1 | 538 s |
| O=C(COc1cccc(Cl)c1)N1CCN(c2nc(CN3CCCCC3)cs2)CC1 | 681 s |
| CCCNC(=O)NCc1nc(-c2ccc(Cl)cc2)no1 | 806 s |
| CCOc1ccc(-c2ccc(=O)n(Cc3nc(-c4ccc5c(c4)OCO5)no3)n2)cc1 | 1050 s |
| O=C1CCCCC(C(=O)N2CCc3ccccc32)N1 (stereo unspecified) | 726 s |
| COCCNC(=O)c1csc(N2CCN(c3ccc(F)cc3)CC2)n1 | 869 s |
| Cc1ccc(C)c(S(=O)(=O)N2CCC3(CC2)NCCN=C3NCc2cc(F)cc(F)c2)c1 | 774 s |
| O=C(CC1CCN(C(=O)Nc2ccccc2)CC1)N1CCN(c2ccccn2)CC1 | 603 s |
| CC(C)c1cc(C(=O)Nc2ccc(Cl)cc2)no1 | 1080 s |
| CCOc1ccc(-n2nnnc2CNC(=O)CCCN2C(=O)c3ccccc3C2=O)cc1 | 734 s |
| COc1cc(C(=O)N2CCC3(CC2)N=C(c2ccc(Cl)cc2)C(=O)N3)cc(OC)c1OC | 812 s |
| CCn1cc(-c2nc(C)c(C(=O)NCc3ccc(OC)cc3)s2)c2cccnc21 | 902 s |
| O=C(NC1CCCC1)C1CCCN(c2ncnc3c2oc2ccccc23)C1 (stereo unspecified) | 713 s |

| SMILES | RP-LC retention time |
| --- | --- |
| COCCNS(=O)(=O)c1cc(-c2nc(CC(C)C)cs2)cs1 | 1010 s |
| Cc1ccc(NC(=O)CSc2ccc(N3CCCC(C(=O)NC4CC4)C3)nn2)c(C)c1 (stereo unspecified) | 625 s |
| COc1cn(CC(=O)NCc2ccco2)c(CO)cc1=O | 544 s |
| Cc1nn(CCCC(=O)NCCCN2CCCCC2)c(=O)c2c1sc1ccccc12 | 645 s |
| COc1ccc(CNS(=O)(=O)c2c(C)nn(-c3ccc(-c4ccc(C)cc4)nn3)c2C)cc1 | 1070 s |
| Cc1cc(N2C=NS(=O)(=O)c3cccnc32)ccc1F | 807 s |
| CCc1nc2ccccc2c(=O)n1Cc1noc(-c2ccc(OC)c(OC)c2)n1 | 894 s |
| O=C(Nc1ccc(F)cc1F)Nc1nccn(-c2cccc(F)c2)c1=O | 971 s |
| COCCNC(=O)C1CCN(c2nc3ccc(-c4cccs4)nc3s2)CC1 | 774 s |
| CN1CCC(OC2CCN(C(=O)c3ccc(F)cc3Cl)CC2)CC1 | 583 s |
| Cc1ccc2cc(CCC(=O)O)c(=O)[nH]c2c1 | 758 s |
| O=C1CCCc2cc(S(=O)(=O)NCCc3ccc(Cl)cc3)ccc2N1 | 800 s |
| CCc1ccc(NC(=O)C2CCN(S(=O)(=O)c3cc(C(=O)N4CCOCC4)cs3)CC2)cc1 | 859 s |
| Cc1nc(CCNC(=O)[C@H]2CCCN2C(=O)c2ccc(F)cc2)cs1 | 627 s |
| Cc1ccc2oc(-c3noc(C(=O)NCCN4CCC(C)CC4)n3)c(C)c2c1 | 759 s |
| Cc1cccc(OCC(=O)Nc2ccc3c(c2)Sc2ncccc2C(=O)N3C)c1 | 856 s |
| CCc1ccc(NC(=O)C2CCCN(S(=O)(=O)c3c[nH]c(C(=O)N4CCCCCC4)c3)C2)cc1 (stereo unspecified) | 923 s |
| CCSc1ccccc1C(=O)Nc1nnc(Cc2cccs2)o1 | 764 s |
| CCn1cc(C)c(C(=O)O)c1CC(=O)Nc1ccc(C)cn1 | 680 s |
| CC(Cc1ccco1)NC(=O)c1cc2n(n1)CCCN(Cc1ccccc1)C2=O (stereo unspecified) | 828 s |
| O=C(c1ccoc1)N1CCCC1c1nc(C2CCOCC2)no1 (stereo unspecified) | 670 s |
| COc1ccc(-c2nc(-c3cn(Cc4ccccc4)nn3)no2)cc1OC | 892 s |
| CCS(=O)(=O)N1CCC2(CC1)NC(=O)N(Cc1ccc(Cl)cc1)C2=O | 767 s |

| SMILES | RP-LC retention time |
| --- | --- |
| O=c1c(S(=O)(=O)N2CCCC2)cccn1Cc1cccc(Cl)c1 | 902 s |
| COCCCNC(=O)Cn1nc2cc(C)nc(-c3ccc(C(F)(F)F)cc3)n2c1=O | 765 s |
| O=C(CCCc1ccccc1)N1CCN(c2ccc(-n3cccn3)nn2)CC1 | 758 s |
| COc1cc(Nc2c(C(=O)N3CCC(C)CC3)cnc3nc(C)ccc23)cc(OC)c1 | 662 s |
| O=C(C1CC1)N1CCN(c2nc(CN3CCCCCC3)cs2)CC1 | 1100 s |
| O=C(CC1CCCC1)N1CCCCC1c1nncn1Cc1ccccc1 (stereo unspecified) | 890 s |
| COc1ccc(OC)c(CNC(=O)C2CCN(c3cncnc3N3CCCCC3)CC2)c1 | 688 s |
| Cc1ccc(-c2nc(-c3ccc4oc(C)nc4c3)no2)cc1 | 1180 s |
| Cn1cnc(S(=O)(=O)N2CCC(C(=O)Nc3ccc(F)c(F)c3)CC2)c1 | 709 s |
| CCOc1nccnc1N1CCC(N(C)C(=O)c2ccc(C#N)cc2)C1 (stereo unspecified) | 751 s |
| O=C(Nc1ccc(N2CCOCC2)cc1)c1cccs1 | 658 s |
| O=C(c1cccnc1)N1CCC(c2noc(-c3cnccn3)n2)C1 (stereo unspecified) | 581 s |
| COc1cccc(CNC(=O)N2CCCC(C)(C(=O)NCc3ccc(F)cc3)C2)c1 (stereo unspecified) | 815 s |
| COc1ccc(NC(=O)CN2C(=O)CC(C)Sc3ccccc32)c(OC)c1 (stereo unspecified) | 853 s |
| COc1ccc(-c2csc(Cc3nc(-c4ccc(C)cc4)no3)n2)cc1 | 1240 s |
| Fc1ccccc1N1CCN(Cc2nc(-c3ccc(N4CCCCC4)nc3)no2)CC1 | 972 s |
| COc1ccccc1NC(=O)C1CCN(S(=O)(=O)c2cc(-c3noc(C)n3)cs2)CC1 | 918 s |
| COc1ccccc1CCNC(=O)Cn1ccc2ccccc21 | 891 s |
| COc1ccc(-c2cc(=O)n3c4ccccc4n(CC(=O)NCc4ccco4)c3n2)cc1 | 855 s |
| Cn1cc2c3c(cccc31)CN(C(=O)C1CCC1)CC2 | 878 s |
| O=C(NCC(=O)N1CCOCC1)c1c[nH]c2ccccc12 | 593 s |
| O=C(CSc1nnc(NC(=O)C2CCCCC2)s1)Nc1ccc2c(c1)OCO2 | 802 s |
| O=S(=O)(c1ccc2c(c1)CCC2)N1CCCn2nc(-c3cccnc3)cc2C1 | 714 s |

| SMILES | RP-LC retention time |
| --- | --- |
| Cc1ccc(NC(=O)N2CC(n3cnnc3-c3ccccc3)C2)cc1C | 715 s |
| O=C(Cc1cccs1)N1CCN(S(=O)(=O)C2CC2)CC1 | 666 s |
| CCc1noc(-c2cc(=O)n(CC(=O)NC(C)CC)c3ccccc23)n1 (stereo unspecified) | 816 s |
| CCC(C)NC(=O)Cn1nc2c3cc(-c4ccc(Cl)cc4)nn3ccn2c1=O (stereo unspecified) | 868 s |
| Cc1ccc(N2C(=O)CN(CCc3cccs3)[C@H]3CS(=O)(=O)C[C@H]32)cc1C | 865 s |
| COc1ccccc1N1CCN(Cc2nc3nc(C)cc(N(C)C)n3n2)CC1 | 606 s |
| COc1ccc(Cn2c(=O)c3sccc3n(Cc3nc(-c4ccc(C)c(C)c4)no3)c2=O)cc1 | 1180 s |
| Cc1cc(NS(=O)(=O)c2cc(-c3nc(C(C)(C)C)cs3)cs2)ccc1F | 1220 s |
| COc1ccc(C2C(C(=O)NCCC(C)C)c3cc(OC)c(OC)cc3C(=O)N2C)cc1 (stereo unspecified) | 804 s |
| CCn1cc(-c2nc(CC(=O)N3CCN(c4ccc(F)cc4)CC3)cs2)c2cccnc21 | 921 s |
| CCOc1ccc(CNC(=O)c2c(C)sc3ccn(C)c(=O)c23)cc1 | 786 s |
| Cc1ccc(-n2nc3c(N4CCCC(C(=O)NCCCN5CCCC5=O)C4)nnc(C)c3c2C)cc1 (stereo unspecified) | 627 s |
| Cc1ccc(-c2nc3nc(C)c(CC(=O)NC(C)C)c(C)n3n2)cc1 | 761 s |
| O=S(=O)(NC1CCCCCC1)c1ccc(-c2nnc(C3CCCC3)o2)o1 | 1080 s |
| COC(=O)c1c(C)[nH]c(C(=O)N2CCCC(C(=O)NC3CC3)C2)c1C (stereo unspecified) | 627 s |
| COc1ccc(-c2nc(CN(c3ccccc3)S(=O)(=O)c3cccs3)c(C)o2)cc1 | 1130 s |
| O=C(CSc1nnc(NC(=O)c2c(F)cccc2Cl)s1)c1ccccc1 | 888 s |
| Cc1ccc(C(C)NC(=O)C2CCN(c3nccnc3Oc3ccccc3)CC2)cc1C (stereo unspecified) | 1070 s |
| CCc1cc(=O)n(CC(=O)Nc2cc(F)ccc2C)c(N2CCOCC2)n1 | 776 s |
| CC(C)c1noc(-c2ccc(-n3cnc(C(=O)Nc4ccc(F)cc4)c3)nc2)n1 | 1020 s |
| CC(C)Cn1cc(CCNC(=O)Nc2ccc(Cl)cc2)c2cccnc21 | 889 s |
| Cn1c(=O)cnc2ccc(N3CCCC3)nc21 | 884 s |
